Source: paper PMC4722887 (Oncology Reports, 2015)

Test system: CD8 T cells of HLA-A*0201-transgenic HHD mice
Assay type: in vivo, mouse

14: heteroclitical peptide derived from #13 (p944) (LQAYRFHAV) [Peptide 14]
CD8 T-cell immune responses against the native epitope, peptide emulsified in IFA (injected in HHD mice): only weak

1: native hTERT peptide, start position 540 (540–548) (ILAKFLHWL) [Peptide 1]
Immunogenicity when coupled to the surface of the liposomes (HHD mice): no immunogenicity
